In patent publication US20230357269A1 (LES LABORATOIRES SERVIER, priority 2020, published 2023):
pIC50: −log10 of the molar value.

Biological target: human recombinant LRRK2 protein (Homo sapiens (Human), UniProt Q5S007)
Assay: LRRK2 Kinase Activity Assay (ADP-Glo)
Format: biochemical
Conditions: LRRK2 wt; LRRKtide peptide and ATP substrates; 1h-incubation at 37° C.
In short: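 Recombinant human LRRK2 acted on LRRKtide peptide and ATP for 1 h at 37 °C. ADP formed was detected by ADP-Glo luminescence (ATP depletion, then ADP-to-ATP conversion and luciferase). IC50s came from curve fits over 10 concentrations (N=2).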

Chain of human recombinant LRRK2 protein (Q5S007 whole entry): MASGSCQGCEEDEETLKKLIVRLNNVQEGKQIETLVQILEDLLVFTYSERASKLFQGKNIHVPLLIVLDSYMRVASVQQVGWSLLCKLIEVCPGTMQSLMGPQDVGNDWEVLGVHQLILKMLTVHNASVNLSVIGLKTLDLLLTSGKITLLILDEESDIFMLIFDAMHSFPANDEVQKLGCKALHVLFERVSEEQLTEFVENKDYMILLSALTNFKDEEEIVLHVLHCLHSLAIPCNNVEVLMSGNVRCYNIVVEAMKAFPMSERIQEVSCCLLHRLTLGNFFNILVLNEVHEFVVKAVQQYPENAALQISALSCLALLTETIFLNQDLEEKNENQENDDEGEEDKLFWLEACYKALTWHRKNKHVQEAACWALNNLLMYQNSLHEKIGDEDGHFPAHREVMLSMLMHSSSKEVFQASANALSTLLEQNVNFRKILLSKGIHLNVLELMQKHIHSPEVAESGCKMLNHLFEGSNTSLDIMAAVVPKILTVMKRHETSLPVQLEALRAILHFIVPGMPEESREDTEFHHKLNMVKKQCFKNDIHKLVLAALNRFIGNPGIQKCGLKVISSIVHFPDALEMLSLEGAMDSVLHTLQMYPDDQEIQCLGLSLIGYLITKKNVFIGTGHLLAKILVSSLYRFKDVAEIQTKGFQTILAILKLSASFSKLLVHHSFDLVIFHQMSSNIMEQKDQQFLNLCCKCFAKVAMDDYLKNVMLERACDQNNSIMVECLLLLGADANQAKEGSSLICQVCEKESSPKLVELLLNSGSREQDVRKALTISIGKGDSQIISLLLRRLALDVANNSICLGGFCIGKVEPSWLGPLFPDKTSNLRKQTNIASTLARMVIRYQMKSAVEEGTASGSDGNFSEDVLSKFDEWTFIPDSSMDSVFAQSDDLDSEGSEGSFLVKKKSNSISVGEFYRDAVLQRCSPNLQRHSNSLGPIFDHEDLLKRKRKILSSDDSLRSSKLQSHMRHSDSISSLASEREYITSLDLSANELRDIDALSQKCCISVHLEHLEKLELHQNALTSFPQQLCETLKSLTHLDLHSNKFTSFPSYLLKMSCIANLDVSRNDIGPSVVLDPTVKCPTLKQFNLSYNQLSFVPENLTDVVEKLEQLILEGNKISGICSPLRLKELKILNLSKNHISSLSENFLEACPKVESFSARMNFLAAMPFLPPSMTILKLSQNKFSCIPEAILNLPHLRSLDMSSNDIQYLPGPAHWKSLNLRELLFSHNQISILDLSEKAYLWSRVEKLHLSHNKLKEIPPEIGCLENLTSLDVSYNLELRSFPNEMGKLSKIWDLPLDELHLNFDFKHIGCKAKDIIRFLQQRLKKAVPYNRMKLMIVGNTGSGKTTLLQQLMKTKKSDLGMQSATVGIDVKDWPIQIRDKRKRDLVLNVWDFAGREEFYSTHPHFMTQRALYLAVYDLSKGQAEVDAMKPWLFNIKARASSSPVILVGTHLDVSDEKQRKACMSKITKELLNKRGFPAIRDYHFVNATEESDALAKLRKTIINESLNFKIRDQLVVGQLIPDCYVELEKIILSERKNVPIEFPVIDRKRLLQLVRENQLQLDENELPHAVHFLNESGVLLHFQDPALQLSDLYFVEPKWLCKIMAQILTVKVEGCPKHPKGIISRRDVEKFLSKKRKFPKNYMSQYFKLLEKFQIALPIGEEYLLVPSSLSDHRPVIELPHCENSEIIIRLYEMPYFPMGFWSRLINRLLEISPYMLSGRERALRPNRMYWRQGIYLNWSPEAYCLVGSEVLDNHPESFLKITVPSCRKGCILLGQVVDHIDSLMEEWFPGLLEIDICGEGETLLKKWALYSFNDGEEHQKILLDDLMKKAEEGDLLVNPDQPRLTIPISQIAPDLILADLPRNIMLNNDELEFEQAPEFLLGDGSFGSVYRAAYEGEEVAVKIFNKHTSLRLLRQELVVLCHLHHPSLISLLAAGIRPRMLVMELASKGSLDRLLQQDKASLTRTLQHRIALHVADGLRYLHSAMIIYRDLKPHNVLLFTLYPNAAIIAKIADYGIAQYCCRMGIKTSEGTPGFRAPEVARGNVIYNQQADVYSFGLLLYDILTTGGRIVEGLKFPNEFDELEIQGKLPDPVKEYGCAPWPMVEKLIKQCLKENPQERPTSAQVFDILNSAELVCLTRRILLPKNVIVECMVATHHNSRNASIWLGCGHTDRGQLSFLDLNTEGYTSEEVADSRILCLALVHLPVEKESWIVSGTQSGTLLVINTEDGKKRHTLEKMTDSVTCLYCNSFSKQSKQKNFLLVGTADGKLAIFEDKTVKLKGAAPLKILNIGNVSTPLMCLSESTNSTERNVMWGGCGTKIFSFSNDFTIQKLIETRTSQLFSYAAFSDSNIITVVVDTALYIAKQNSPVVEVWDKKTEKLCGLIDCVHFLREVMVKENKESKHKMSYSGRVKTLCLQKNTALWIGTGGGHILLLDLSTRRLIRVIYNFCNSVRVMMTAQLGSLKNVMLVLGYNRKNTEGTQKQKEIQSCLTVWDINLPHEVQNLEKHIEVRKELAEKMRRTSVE

| pIC50 | Structure (SMILES) |
| --- | --- |
| > 8.00 | C[C@@H]1CCNC(=O)OCc2cncc(n2)-c2n[nH]c3ccc(cc23)O1 [Example 133, (13R)-13-methyl-8,14-dioxa-4,10,19,20,23-pentaazatetracyclo[13.5.2.1^2,6.0^18,21]tricosa-1(20),2,4,6(23),15,17,21-heptaen-9-one] |
| > 8.00 | O=C1NCCCOc2ccc3[nH]nc(c3c2)-c2cncc(c2)CO1 [Example 1, 8,14-dioxa-4,10,19,20-tetraazatetracyclo[13.5.2.1^2,6.0^18,21]tricosa-1(20),2,4, 6(23),15,17,21-heptaen-9-one] |
| > 8.00 | O=C1NCCCOc2ccc3[nH]nc(c3c2)-c2cc(cc(CN3CCOCC3)c2)CO1 [Example 41, 4-[(morpholin-4-yl)methyl]-8,14-dioxa-10,19,20-triazatetracyclo[13.5.2.1^2,6.0^18,21]tricosa-1(20),2,4,6(23),15,17,21-heptaen-9-one] |
| > 8.00 | CC1Cn2cc(cn2)-c2n[nH]c3ccc(cc23)OCCCNC(=O)O1 (centres unmarked) [Example 94, 7-methyl-8,14-dioxa-4,5,10,19,20-pentaazatetracyclo[13.5.2.1^2,5.0^18,21]tricosa-1(20),2(23),3,15(22),16,18(21)-hexaen-9-one] |
| 7.00 to 8.00 | C[C@@H]1CCNC(=O)OCc2nc(cn2C)-c2n[nH]c3ccc(cc23)O1 [Example 158, (12R)-4,12-dimethyl-7,13-dioxa-4,9,18,19,22-pentaazatetracyclo[12.5.2. 1^2,5.0^17,20]docosa-1(19),2,5(22),14(21),15,17(20)-hexaen-8-one] |
| > 8.00 | CC1OC(=O)NCCCOc2ccc3[nH]nc(c3c2)-c2cncc1c2 (centres unmarked) [Example 107, 7-methyl-8,14-dioxa-4,10,19,20-tetraazatetracyclo[13.5.2.1^2,6.0^18,21]tricosa-1(20),2,4,6(23),15,17,21-heptaen-9-one] |
| > 8.00 | O=C1NCCCOc2ccc3[nH]nc(c3c2)-c2cnn(n2)CCO1 [Example 166, 8,14-dioxa-4,5,10,19,20,23-hexaazatetracyclo[13.5.2.1^2,5.0^18,21]tricosa-1(20),2(23),3,15(22),16,18(21)-hexaen-9-one] |
| > 8.00 | CCC1CCOc2ccc3[nH]nc(c3c2)-c2cccc(c2)COC(=O)N1 (centres unmarked) [Example 87, 11-ethyl-8,14-dioxa-10,19,20-triazatetracyclo[13.5.2.1^2,6.0^18,21]tricosa-1(20),2(23),3,5,15(22),16,18(21)-heptaen-9-one] |
| > 8.00 | C[C@@H]1CCNC(=O)OCc2cncc(c2)-c2n[nH]c3cc(F)c(cc23)O1 [Example 124, (13R)-16-fluoro-13-methyl-8,14-dioxa-4,10,19,20-tetraazatetracyclo[13.5.2.1^2,6.0^18,21]tricosa-1(20),2,4,6(23),15,17,21-heptaen-9-one] |
| > 8.00 | O=C1NC[C@@H](F)COc2ccc3[nH]nc(c3c2)-c2cccc(c2)CO1 [Example 168, (12R)-12-fluoro-8,14-dioxa-10,19,20-triazatetracyclo[13.5.2.1^2,6.0^8211]tricosa-1(20),2(23),3,5,15(22),16,18(21)-heptaen-9-one] |
| > 8.00 | N#CCc1cc2cc(c1)-c1n[nH]c3ccc(cc13)OCCCNC(=O)OC2 [Example 77, 2-{9-oxo-8,14-dioxa-10,19,20-triazatetracyclo[13.5.2.1^2,6.0^18,21]tricosa-1(20),2(23),3,5,15(22),16,18(21)-heptaen-4-yl}acetonitrile] |
| > 8.00 | C[C@@H]1CCNC(=O)OCc2cc(c[nH]c2=O)-c2n[nH]c3ccc(cc23)O1 [Example 144, (13R)-13-methyl-8,14-dioxa-4,10,19,20-tetraazatetracyclo[13.5.2.1^2,6.0^18,21]tricosa-1(20),2,6(23),15,17,21-hexaene-5,9-dione] |
| 6.00 to 7.00 | C[C@@H]1CCNC(=O)OCc2cccc(c2F)-c2n[nH]c3ccc(cc23)O1 [Example 120, (13R)-23-fluoro-13-methyl-8,14-dioxa-10,19,20-triazatetracyclo[13.5.2.1^2,6.0^18,21]tricosa-1(20),2,4,6(23),15,17,21-heptaen-9-one] |
| > 8.00 | CC1OC(=O)NCCCOc2ccc3[nH]nc(c3c2)-c2cccc1c2 (centres unmarked) [Example 22, 7-methyl-8,14-dioxa-10,19,20-triazatetracyclo[13.5.2.1^2,6.0^18,21]tricosa-1(20), 2,4,6(23),15,17,21-heptaen-9-one] |
| 6.00 to 7.00 | Cn1nc2cc1CCOC(=O)NCCCOc1ccc3[nH]nc-2c3c1 [Example 145, 4-methyl-8,14-dioxa-3,4,10,19,20-pentaazatetracyclo[13.5.2.1^2,5.0^18,21]tricosa-1(20),2,5(23),15(22),16,18(21)-hexaen-9-one] |
| > 8.00 | O=C1NCCCOc2ccc3[nH]nc(c3c2)-c2csc(n2)CCO1 [Example 134, 8,14-dioxa-4-thia-10,19,20,23-tetraazatetracyclo[13.5.2.1^2,5.0^18,21]tricosa-1(20),2,5(23),15,17,21-hexaen-9-one] |

| pIC50 | Structure (SMILES) |
| --- | --- |
| > 8.00 | O=C1NCCCOc2ccc3[nH]nc(c3c2)-c2cc(no2)CCCO1 [Example 123, 3,9,15-trioxa-4,11,20,21-tetraazatetracyclo[14.5.2.1^2,5.0^19,22]tetracosa-1(21),2(24),4,16,18,22-hexaen-10-one] |
| > 8.00 | COCCC1CCN(c2cc3cc(c2)-c2n[nH]c4ccc(cc24)OCCCNC(=O)OC3)CC1 [Example 23, 4-[4-(2-methoxyethyl)piperidin-1-yl]-8,14-dioxa-10,19,20-triazatetracyclo[13.5.2.1^2,6.0^18,21]tricosa-1(20),2,4,6(23),15,17,21-heptaen-9-one] |
| > 8.00 | C[C@@H]1CCNC(=O)OCc2cccc(n2)-c2n[nH]c3ccc(cc23)O1 [Example 114, (13R)-13-methyl-8,14-dioxa-10,19,20,23-tetraazatetracyclo[13.5.2.1^2,6.0^18,21]tricosa-1(20),2,4,6(23),15,17,21-heptaen-9-one] |
| > 8.00 | C[C@@H]1CCNC(=O)OCc2cccc(c2)-c2n[nH]c3cc(Cl)c(cc23)O1 [Example 138, (13R)-16-chloro-13-methyl-8,14-dioxa-10,19,20-triazatetracyclo[13.5.2.1^2,6.0^18,21]tricosa-1(20),2,4,6(23),15,17,21-heptaen-9-one] |
| > 8.00 | COCCN1CCN(c2cc3cc(c2)-c2n[nH]c4ccc(cc24)OCCCNC(=O)OC3)CC1 [Example 46, 4-[4-(2-methoxyethyl)piperazin-1-yl]-8,14-dioxa-10,19,20-triazatetracyclo[13.5.2.1^2,6.0^18,21]tricosa-1(20),2,4,6(23),15,17,21-heptaen-9-one] |
| > 8.00 | CC1CNC(=O)OCCn2cc(cn2)-c2n[nH]c3ccc(cc23)OC1 (centres unmarked) [Example 93, 12-methyl-8,14-dioxa-4,5,10,19,20-pentaazatetracyclo[13.5.2.1^2,5.0^18,21]tricosa-1(20),2(23),3,15(22),16,18(21)-hexaen-9-one] |
| > 8.00 | C[C@@H]1CCNC(=O)OCc2cc(Cl)cc(n2)-c2n[nH]c3ccc(cc23)O1 [Example 125, (13R)-4-chloro-13-methyl-8,14-dioxa-10,19,20,23-tetraazatetracyclo[13.5.2.1^2,6.0^18,21]tricosa-1(20),2(23),3,5,15(22),16,18(21)-heptaen-9-one] |
| 6.00 to 7.00 | CCC1OC(=O)NCCCOc2ccc3[nH]nc(c3c2)-c2cccc1c2 (single isomer, unassigned) [Example 115, (7R)- or (7S)-7-ethyl-8,14-dioxa-10,19,20-triazatetracyclo[13.5.2.1^2,6.0^18,21]tricosa-1(20),2,4,6(23),15,17,21-heptaen-9-one] |
| 7.00 to 8.00 | CC1CCOc2ccc3[nH]nc(c3c2)-c2cnn(c2)CCOC(=O)N1 (centres unmarked) [Example 85, 11-methyl-8,14-dioxa-4,5,10,19,20-pentaazatetracyclo[13.5.2.1^2,5.0^18,21]tricosa-1(20),2(23),3,15(22),16,18(21)-hexaen-9-one] |
| > 8.00 | CC1Cn2cc(cn2)-c2n[nH]c3ccc(cc23)O[C@H](C)CCNC(=O)O1 (stereo partly drawn) [Example 113, (13R)-7,13-dimethyl-8,14-dioxa-4,5,10,19,20-pentaazatetracyclo[13.5.2.1^2,5.0^18,21]tricosa-1(20),2(23),3,15(22),16,18(21)-hexaen-9-one] |
| > 8.00 | O=C1NCCCOc2ccc3[nH]nc(c3c2)-c2cc(cc(N3C[C@@H]4C[C@H]3CO4)c2)CO1 [Example 40] |
| > 8.00 | CN1CCCNC(=O)OCc2cccc(c2)-c2n[nH]c3ccc1cc23 [Example 163, 14-methyl-8-oxa-10,14,19,20-tetraazatetracyclo[13.5.2.1^2,6.0^18,21]tricosa-1(20),2(23),3,5,15,17,21-heptaen-9-one] |
| > 8.00 | CN(c1cc2cc(c1)-c1n[nH]c3ccc(cc13)OCCCNC(=O)OC2)C1COC1 [Example 52, 4-[methyl(oxetan-3-yl)amino]-8,14-dioxa-10,19,20-triazatetracyclo[13.5.2.1^2,6.0^18,21]tricosa-1(20),2,4,6(23),15,17,21-heptaen-9-one] |
| > 8.00 | O=C1NCCCOc2ccc3[nH]nc(c3c2)-c2ccc(C3CC3)c(c2)CO1 [Example 69, 5-cyclopropyl-8,14-dioxa-10,19,20-triazatetracyclo[13.5.2.1^2,6.0^18,21]tricosa-1(20),2,4,6(23),15,17,21-heptaen-9-one] |
| > 8.00 | O=C1NCCCOc2ccc3[nH]nc(c3c2)-c2cc(cc(CN3CCCC3)c2)CO1 [Example 42, 4-[(pyrrolidin-1-yl)methyl]-8,14-dioxa-10,19,20-triazatetracyclo[13.5.2.1^2,6.0^18,21]tricosa-1(20),2,4,6(23),15,17,21-heptaen-9-one] |
| > 8.00 | CC(C)N1CCN(c2cc3cc(c2)-c2n[nH]c4ccc(cc24)OCCCNC(=O)OC3)CC1 [Example 13, 4-[4-(propan-2-yl)piperazin-1-yl]-8,14-dioxa-10,19,20-triazatetracyclo[13.5.2.1^2,6.0^18,21]tricosa-1(20),2,4,6(23),15,17,21-heptaen-9-one] |
